Source: patent publication US20090093471A1, “Methods of Treating Nervous Disorders” (priority 2005, published 2009)
Read-outs that look alike come from different tables or passages of the source. Blank lines part the entries; values can stand above or below the compound they belong to.

How the values were obtained:
γ-secretase [1] = assay: γ-Secretase assay, de novo Aβ generation from membranes of compound-treated cells; type: cell-based; conditions: cells incubated with compound for 16 hours
Description: We implemented a an assay allowing de novo Aβ generation in vitro, using cell membranes as the source of γ-secretase. Preparation of solubilized γ-secretase fractions was performed essentially as described previously (Li, Y. M., Lai, M. T., Xu, M., Huang, Q., DiMuzio-Mower, J., Sardana, M. K., Shi, X. P., Yin, K. C., Shafer, J. A., and Gardell, S. J. (2000) Proc. Natl. Acad. Sci. U.S.A. 97, 6138-6143) with the above modifications. All incubations were performed in the presence of Complete Protease Inhibitor Cocktail. Confluent plates swAPP-HEK293 cells were lysed in 1 ml of ice-cold CelLytic-M (Sigma) and incubated 15 minutes at 4° C. on a shaker. Cell debris and nuclei were removed by centrifugation at 1000×g for 15 min at 4° C. […] Solubilized γ-secretase activity was induced at 37° C. for 2 h with or without the indicated treatments and Aβ 40 generated de novo was quantified by ELISA. […]
To test this hypothesis, we used an established γ-secretase assay allowing de novo Aβ generation in vitro, using cell membranes as the source of γ-secretase. Solubilized γ-secretase fractions are activated in a γ-secretase buffer (see experimental procedures) and activity is monitored following either the cleavage of an internally quenched fluorogenic γ-secretase substrate, or endogenous C99 itself. […] C99 cleavage by γ-secretase was measured by de novo Aβ 40 generation. […]

[2] = target: T1, recombinant human BACE protein (Homo sapiens, UniProt P56817); assay: BACE fluorogenic assay with recombinant protein; type: biochemical; conditions: recombinant human BACE 1 μg/well, pH4.4; compound 38 at 2, 10 or 20 μM and higher
T1 construct: purchased R&D Systems
From the text: (§1) The human BACE1 cDNA was generated by RT-PCR from human brain mRNA samples (Biocat, Germany) and cloned into pcDNA3 expression vector. Subsequently, a HEK293 cell line stably expressing BACE1 was generated and used as a source of BACE1. An in vitro assay was developed based on previous studies (Ermolieff, J., Loy, J. A., Koelsch, G., and Tang, J. (2000) Biochemistry 39, 12450-12456) using a quenched fluorogenic substrate containing the Swedish mutation MCA-[…](DNP)-CONH2 (Substrate V, Calbiochem). Proteins were extracted in 20 mM MES/1% Triton X100 plus protease inhibitor cocktail by incubation on ice for 30 minutes. The assay was carried out in black 96 well plates (ATGC) in a volume of 200 μl reaction buffer (25 mM MES/25 mM Sodium Acetate/25 mM Tris, pH 4.4), containing 25 μl of the preparation plus 15 μM peptide Substrate V. Excitation was performed at 320 nm and the reaction kinetics were monitored by measuring the fluorescence emission at 420 nm on a Fluoroscan Ascent FL plate reader (Thermo LabSystems). Controls included purified recombinant human BACE501 protein (R&D Systems) diluted at 1 μg/well in 200 μl of 0.1 M Na Acetate buffer (pH 4.4), the BACE substrate analog inhibitor III (H-Glu-Val-Asn-Statine-Val-Ala-Glu-Phe-NH2, Calbiochem), or substrate alone, and background fluorescence was subtracted to recorded BACE activitiy. […]

Cdc42 = Cdc42 (Homo sapiens, UniProt P60953); conditions: Gao et al. 2004; Picard et al., submitted; cited from earlier work
Recombinant Rac3 = Recombinant Rac3 (Homo sapiens, UniProt P60763); assay: biochemical
Recombinant Rac2 = Recombinant Rac2 (Homo sapiens, UniProt P15153); assay: biochemical
[3] = system: Notch-1 (NotchΔE) cleavage; assay: NotchΔE transfection and Notch-1 cleavage assay in Hela cells; conditions: Hela cells overexpressing NotchΔE, up to 16 hours; DAPT 2 μM
[4] = rat, in vivo
[5] = Acute toxicity and tolerability in rat; conditions: in vivo
γ-secretase [6] = assay: γ-Secretase assay, compound added to solubilized γ-secretase preparations; type: biochemical
Description: We implemented a an assay allowing de novo Aβ generation in vitro, using cell membranes as the source of γ-secretase. Preparation of solubilized γ-secretase fractions was performed essentially as described previously (Li, Y. M., Lai, M. T., Xu, M., Huang, Q., DiMuzio-Mower, J., Sardana, M. K., Shi, X. P., Yin, K. C., Shafer, J. A., and Gardell, S. J. (2000) Proc. Natl. Acad. Sci. U.S.A. 97, 6138-6143) with the above modifications. All incubations were performed in the presence of Complete Protease Inhibitor Cocktail. Confluent plates swAPP-HEK293 cells were lysed in 1 ml of ice-cold CelLytic-M (Sigma) and incubated 15 minutes at 4° C. on a shaker. Cell debris and nuclei were removed by centrifugation at 1000×g for 15 min at 4° C. For membrane isolation, the supernatant solutions were centrifuged at 20,000×g for 1 hour at 4° C. After centrifugation, the ensuing pellets were resuspended in 100 μl activity buffer (150 mM Na Citrate, pH 6.4)/cells plate and were defined as solubilized γ-secretase, as previously shown by Pinnix et al. (2001). Solubilized γ-secretase activity was induced at 37° C. for 2 h with or without the indicated treatments and Aβ 40 generated de novo was quantified by ELISA. Control experiments used the internally quenched fluorogenic γ-secretase substrate NMA-[…](DNP)-DRDRDR-NH2 (λex=355 nm; λem=440 nm) from Calbiochem, which contains the C-terminal β-APP amino acid sequence that is cleaved by γ-secretase and the γ-secretase inhibitor N—[N-(3,5-Difluorophenacetyl-L-alanyl)]-S-phenylglycine t-Butyl Ester (DAPT, Calbiochem).
To test this hypothesis, we used an established γ-secretase assay allowing de novo Aβ generation in vitro, using cell membranes as the source of γ-secretase. Solubilized γ-secretase fractions are activated in a γ-secretase buffer (see experimental procedures) and activity is monitored following either the cleavage of an internally quenched fluorogenic γ-secretase substrate, or endogenous C99 itself. The well characterized cell permeable γ-secretase inhibitor DAPT (Lanzn, T. A., Himesn, C. S., Pallanten, G., Adamsn, L., Yamazakin, S., Amoren, B., and Merchantn, K. M. (2003) J. Pharmacol. Exp. Ther. 305, 864-871) is included as control. C99 cleavage by γ-secretase was measured by de novo Aβ 40 generation. De novo Aβ 40 production increased with time and was optimal at 37° C. (FIG. 4 B). […] When temperature decreased, Aβ 40 generation decreased in parallel and was abolished at 4° C., in accordance with an enzymatic processing. […] (data not shown).

[7] = system: Aβ 40 and Aβ 42 production in swAPP-HEK293 cells; assay: Secreted Aβ 40 and Aβ 42 ELISA, swAPP-HEK293 cells; type: cell-based, human; conditions: for secreted Aβ 40 and Aβ 42: swAPP-HEK293, 18 h, 20, 10 or 2 μM
From the text: Human APP harbouring the “Swedish” mutation (swAPP) is more prone to processing than wtAPP.

[8] = system: intracellular Aβ 40 and Aβ 42 in swAPP-HEK293 cells; assay: Intracellular (cell-associated) Aβ 40 and Aβ 42 ELISA, swAPP-HEK293 cells; type: cell-based, human; conditions: qualitative; for Aβ 40 and Aβ 42 intracellular levels: swAPP-HEK293 cell lysates, normalized to cellular protein
[9] = system: APP processing (α-secretase pathway, CTFs) in swAPP-HEK293 cells; assay: Western blot of APP, sAPPα, C83 and C99 in swAPP-HEK293 cells
Description: swAPP-HEK293 cells were scraped and lysed in CelLytic-M (Sigma). Protein concentrations were determined by the Bradford procedure. Equal quantity of proteins were separated on a 10% SDS-PAGE gel and transferred to Hybond-C (Amersham Biosciences) membranes. After transfer, membranes were blocked with 5% nonfat milk and incubated overnight with the primary antibody anti-APP antibody at 1/1000 (Serotec), allowing the detection of both APP and C83-C99 CTFs under specific separation and exposure conditions. For sAPPα detection, cells were allowed to secrete for 7 h. Media were collected, centrifuged and then equal amount of secretate were loaded on 10% SDS-PAGE and Western blotted with 6E10 monoclonal antibody (1/1000).

BACE1 = target: T2, BACE1 (Homo sapiens, UniProt P56817); assay: Cellular BACE activity, HEK293 cells stably expressing BACE1; type: cell-based; conditions: cells incubated 24 hours with compound 38 at 2, 10 or 20 μM
T2 construct: expressed in transfected cells; host or cells: HEK293
From the text: as §1

RhoA = RhoA (Homo sapiens, UniProt P61586); conditions: Gao et al. 2004, Picard et al., submitted, cited from earlier work
[10] = system: Aβ 40 production in SH-SY5Y cells; conditions: for reduction in secreted Aβ 40 levels: 18 h
Description: Cells were treated 48 hours after plating in 10 cm plates with various concentrations of the indicated molecules, or DMSO as the vehicle for 16 hours. To do so, medium was replaced with 5 ml of new medium in which treatments were performed. Total DMSO dilution was 1/1000 in all cases. Cells were allowed to secrete in 5 ml medium for 7 hours in the presence of 1 μM phosphoramidon.
Stably transfected swAPP-HEK293 cells were incubated for 7 hours in the presence of phosphoramidon (1 μM) (Sigma). Media and cell lysates were collected as above, centrifuged, normalized to total protein and assayed for Aβ 40 and Aβ 42 by sandwich ELISA according to the manufacturer's instructions (Biosource International). For Aβ 42 detection, samples were concentrated on YM3 Microcon columns (Millipore). […] Right cortices were homogenized for 3 h at room temperature in 5M Guanidine-Hcl, 50 mM Tris-Hcl, pH8 with a protease inhibitor mixture (Roche Diagnostics). Tissue homogenates were diluted 1:1 (v/v) in BSAT-DPBS buffer (Dulbecco's phosphate buffered saline with 5% BSA and 0.03% Tween-20), pH 7.4, and were centrifuged at 20,000 g for 20 min at 4° C. Supernatants were diluted 1:1 (v/v) in ELISA kit sample buffer, normalized to total protein and assayed for Aβ 40 and Aβ 42 by sandwich ELISA according to the manufacturer's instructions. For Aβ 42 detection, samples were concentrated on YM3 Microcon columns (Millipore).

[11] = system: Rac1-dependent cytoskeleton rearrangements; conditions: Picard et al., submitted; cited from earlier work
[12] = rat, in vivo; remark: listed apart in the source
[13] = system: constitutively active mutant Rac1-Val12 (RACV12); assay: Transient expression luciferase reporter assays in NIH3T3 cells cotransfected with RacV12; conditions: c-Jun, NF-KB and cyclin D1 reporter constructs; qualitative
Description: Briefly, 250,000 NIH3T3 cells/well were seeded in 6-well plates and were co-transfected 24 h later with plasmids prK5-RacV12 and reporter constructs using LipofectAMINE Plus (Invitrogen). Compound of interest was added after the incubation with LipofectAmine. 24 h after transfection, cells were starved for an additional 24 h with Dulbecco's modified Eagle medium supplemented with 0.5% FBS together with the appropriate doses of test compounds or the solvent only. Analyses of the cell lysates of the transiently transfected NIH3T3 cells were performed using the Luciferase Assay System (Promega) and Fluoroscan Ascent FL plate reader (Thermo LabSystems). […] However, consistent and reproducible data were obtained in different assays performed using several plasmid preparations, and we monitored protein concentration for yield in the cell extracts as well as expression of the tagged, exogenous protein by Western blotting.

Rac1 = Rac1 (Homo sapiens, UniProt P63000); assay: Endogenous Rac GTPase activation assay (GST-Pak-PBD pull-down of GTP-Rac1) in U87-MG cells; conditions: qualitative
Description: U87-MG cells were grown in a 150-mm-diameter dish until they reached 80% confluency. The cells were then treated with the test compounds or the solvent only. Cells were then lyzed in a buffer containing 0.5% triton, 10 mM Tris pH7.5, mM KCl, 120 mM NaCl and 1.8 mM CaCl2. Lysates were clarified, the protein concentrations were normalized, and the GTP-bound Rac1 in the lysates were measured using the Rac Activation Assay Biochem kit (Cytoskeleton) as per manufacturer's recommendations.
We used a GST-fusion protein containing the p21-binding domain (PBD) of human p21-activated kinase 1 (Pak1) to affinity precipitate endogenous active Rac1 (GTP-Rac1) from cell lysates to monitor the activation of the small GTPase Rac1.

[14] = Homo sapiens, read-out: IC50, secreted Aβ 40

Sequence of RhoA (P61586 whole entry, species assumed): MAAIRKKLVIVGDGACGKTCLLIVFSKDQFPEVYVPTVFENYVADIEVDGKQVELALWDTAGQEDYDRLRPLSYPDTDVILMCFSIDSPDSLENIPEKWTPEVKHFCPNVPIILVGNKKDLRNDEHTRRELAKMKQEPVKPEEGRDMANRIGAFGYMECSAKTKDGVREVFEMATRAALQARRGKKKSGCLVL
T2 sequence (P56817 46-501): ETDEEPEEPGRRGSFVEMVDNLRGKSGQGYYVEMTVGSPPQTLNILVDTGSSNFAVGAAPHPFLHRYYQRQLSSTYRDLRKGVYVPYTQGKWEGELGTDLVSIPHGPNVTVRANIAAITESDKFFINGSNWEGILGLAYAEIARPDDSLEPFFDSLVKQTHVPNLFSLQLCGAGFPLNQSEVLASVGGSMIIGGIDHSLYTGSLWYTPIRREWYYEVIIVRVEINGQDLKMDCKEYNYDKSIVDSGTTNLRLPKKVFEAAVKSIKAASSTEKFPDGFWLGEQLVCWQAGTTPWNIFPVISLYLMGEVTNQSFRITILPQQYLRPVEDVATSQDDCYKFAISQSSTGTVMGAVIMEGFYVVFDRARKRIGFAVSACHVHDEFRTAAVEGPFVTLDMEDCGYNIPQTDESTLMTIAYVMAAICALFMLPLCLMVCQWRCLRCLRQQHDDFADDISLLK
T1 sequence (P56817 46-501): as above
Sequence of Cdc42 (P60953 whole entry, species assumed): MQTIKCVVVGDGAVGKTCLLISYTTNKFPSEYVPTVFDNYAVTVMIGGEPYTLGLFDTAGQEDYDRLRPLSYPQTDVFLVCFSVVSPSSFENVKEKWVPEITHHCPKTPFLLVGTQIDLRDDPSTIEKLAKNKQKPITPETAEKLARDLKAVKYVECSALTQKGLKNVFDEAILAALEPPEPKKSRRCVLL

Compound: Cl.Cl.O=c1cc(CN2CCOCC2)occ1OCCCCCSc1ccnc2cc(C(F)(F)F)ccc12 [compound 38, 5-(5-(7-(Trifluoromethyl)quinolin-4-ylthio)pentyloxy)-2-(morpholinomethyl)-4H-pyran-4-one dihydrochloride]
de novo Aβ production from C99 (γ-secretase activity) (γ-secretase [1]): dose-dependent reduction
BACE activity (cleavage of fluorogenic Substrate V) [2]: did not affect fluorescence
activity on / interaction with Cdc42 (Cdc42): selective over cdc42 and RhoA
Kd (Recombinant Rac3): 270 nM
Kd (Recombinant Rac2): 60 nM
Notch cleavage (NICD by Western blot) [3]: did not affect Notch cleavage
brain concentrations ([4]; iv, 5 mg/kg): 130 ng/g
brain concentrations ([4]; po, 100 mg/kg): 54 ng/g
LD50 ([5]; iv): 50 mg/kg
LD50 ([5]; po): > 1000 mg/kg
de novo Aβ 40 generation from membrane preparations (γ-secretase [6]; added to solubilized γ-secretase from untreated cells, 50 μM): did not change
de novo Aβ 40 generation from membrane preparations (γ-secretase [6]; concentrations as high as 4 mM): lack of effect
cleavage of fluorogenic γ-secretase substrate (γ-secretase [6]; direct addition): not a direct competitive inhibitor of γ-secretase
Aβ 40 and Aβ 42 levels ([7]; swAPP-HEK293, 50 μM or above): below the detection limit
secreted Aβ 40 and Aβ 42 ([7]; qualitative): dose-dependently inhibits both Aβ species
decrease in Aβ 42 levels (brain Aβ 40 and Aβ 42; guinea pig, 40 mg/kg per day i.p., 15 days, just below significance): 23.6%
lowering of brain Aβ 40 (brain Aβ 40 and Aβ 42; guinea pig, 40 mg/kg per day i.p., 15 days, p<0.05 Wilcoxon): 37%
reduction in Aβ levels in vivo (brain Aβ 40 and Aβ 42; summary statement): ~30%
C83 and C99 levels (brain Aβ 40 and Aβ 42; treated guinea pigs): No significant changes
full-length APP levels (brain Aβ 40 and Aβ 42; treated guinea pigs): no change
Aβ 40 and Aβ 42 intracellular levels [8]: dose-dependent decrease
genotoxicity (Ames test) (Ames test): no genotoxicity
C99 level ([9]; swAPP-HEK293): dose-dependent increase in C99
level of full-length cytosolic and membranous APP ([9]; swAPP-HEK293): unchanged
C83 levels ([9]; swAPP-HEK293, 20, 10 or 2 μM): neither affected sAPPα nor C83 levels
sAPPα levels secreted in culture medium ([9]; swAPP-HEK293, 20, 10 or 2 μM): neither affected sAPPα nor C83 levels
cellular BACE activity (fluorescence) (BACE1): did not affect fluorescence
activity on / interaction with RhoA (RhoA): selective over cdc42 and RhoA
reduction in secreted Aβ 40 levels ([10]; 2 μM): 12.9%
reduction in secreted Aβ 40 levels ([10]; 10 μM): 30.1%
reduction in secreted Aβ 40 levels ([10]; 20 μM): 79.8%
IC50 [10, 14]: 5440 nM
Rac1-dependent cytoskeleton rearrangements [11]: prevents
tolerability [12]: good tolerability

BACE activity (cleavage of fluorogenic Substrate V) [2]: abolished the cleavage
cellular BACE activity (fluorescence) (BACE1): inhibited
Compound: H-Glu-Val-Asn-Statine-Val-Ala-Glu-Phe-NH2 [BACE Inhibitor III, reference compound]

Compound: CCN(CC)CCCC(C)Nc1nc(C)cc(Nc2ccc3nc(C)cc(N)c3c2)n1 (racemic) [compound 49]
Notch cleavage (NICD by Western blot) [3]: no alterations
IC50 [7, 14]: 48900 nM
inhibition at 50 µM ([7]; Homo sapiens, read-out: inhibition of released Aβ 42): 58%
secreted Aβ 40 levels ([7]; swAPP-HEK293, various concentrations, qualitative): dose-dependently reduced secreted Aβ 40 levels
extracellular levels of Aβ 42 ([7]; swAPP-HEK293, qualitative): dose-dependently decreased
intracellular Aβ 40 ([8]; swAPP-HEK293): no intracellular accumulation of Aβ 40
intracellular levels of Aβ 42 ([8]; swAPP-HEK293): dose-dependently decreased
APP expression and maturation, α-secretase pathway (APP, C83, sAPPα) ([9]; swAPP-HEK293, 16 hours): no alterations
activity on / interaction with RhoA (RhoA): does not interact with cdc42 and RhoA
activity on / interaction with RhoA (RhoA; listed as NSC23766): not to affect the activity of Cdc42 or RhoA

Compound: C[C@H](NC(=O)Cc1cc(F)cc(F)c1)C(=O)N[C@H](C(=O)OC(C)(C)C)c1ccccc1 [DAPT, N—[N-(3,5-Difluorophenacetyl-L-alanyl)]-S-phenylglycine t-Butyl Ester, reference compound]
Notch cleavage (NICD by Western blot) [3]: potently inhibited
Aβ production (de novo Aβ 40 generation) (γ-secretase [6]; control inhibitors, DAPT at 2 μM): completely inhibited

Compound: CN1CCN(Cc2cc(=O)c(OCCCCCOc3ncnc4ccccc34)co2)CC1 (racemic) [compound 53, 5-(5-(Quinazolin-4-yloxy)pentyloxy)-2-((4-methylpiperazin-1-yl)methyl)-4H-pyran-4-one]
de novo Aβ production from C99 (γ-secretase activity) (γ-secretase [1]): did not affect γ-secretase activity
luciferase activity from all 3 reporter constructs [13]: did not change luciferase activity
secreted Aβ 40 and Aβ 42 ([7]; qualitative): strictly inactive
Rac1 activation (Rac1): totally unable to inhibit Rac1 activation
Aβ 40 and Aβ 42 intracellular levels [8]: strictly inactive
reducing Aβ levels ([10]; qualitative): strictly inactive
